Measured values as given in PubChem BioAssay (NCI).
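In this assay, cells in 96-well plates receive the compound at five concentrations for 48 hours. Endpoints are linearly interpolated between the surrounding concentrations. TGI denotes the concentration required for complete inhibition of growth.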

Assays:
Assay in all cases: NCI tumour cell line growth inhibition, 48 h
[1] = test system: 786-0 renal
[2] = test system: A498 renal
[3] = test system: A549 NSCLC
[4] = test system: ACHN renal
[5] = test system: BT-549 breast
[6] = test system: CAKI-1 renal
[7] = test system: CCRF-CEM leukemia
[8] = test system: COLO 205 colon
[9] = test system: DU-145 prostate
[10] = test system: HCC-2998 colon
[11] = test system: HCT-116 colon
[12] = test system: HCT-15 colon
[13] = test system: HOP-62 NSCLC
[14] = test system: HOP-92 NSCLC
[15] = test system: HS 578T breast
[16] = test system: HT29 colon
[17] = test system: IGROV1 ovarian
[18] = test system: K-562 leukemia
[19] = test system: KM12 colon
[20] = test system: M14 melanoma
[21] = test system: MALME-3M melanoma
[22] = test system: MCF7 breast
[23] = test system: MDA-MB-231 breast
[24] = test system: MDA-MB-435
[25] = test system: MOLT-4 leukemia
[26] = test system: NCI-H226 lung
[27] = test system: NCI-H23 lung
[28] = test system: NCI-H460 lung
[29] = test system: NCI-H522 lung
[30] = test system: NCI/ADR-RES ovarian
[31] = test system: OVCAR-3 ovarian
[32] = test system: OVCAR-4 ovarian
[33] = test system: OVCAR-5 ovarian
[34] = test system: OVCAR-8 ovarian
[35] = test system: PC-3 prostate
[36] = test system: RPMI-8226 leukemia
[37] = test system: RXF 393 renal
[38] = test system: SF-268 CNS
[39] = test system: SF-295 CNS
[40] = test system: SF-539 CNS
[41] = test system: SK-MEL-2 melanoma
[42] = test system: SK-MEL-28 melanoma
[43] = test system: SK-MEL-5 melanoma
[44] = test system: SK-OV-3 ovarian
[45] = test system: SN12C renal
[46] = test system: SNB-75 CNS
[47] = test system: SR leukemia
[48] = test system: SW-620 colon
[49] = test system: T-47D breast
[50] = test system: TK-10 renal
[51] = test system: U251 CNS
[52] = test system: UACC-257 melanoma
[53] = test system: UACC-62 melanoma
[54] = test system: UO-31 renal
[55] = test system: EKVX NSCLC
[56] = test system: HL-60(TB) leukemia
[57] = test system: SNB-19 CNS

Measured: TGI

COc1ccc2c(c1)-c1c(c3cc(OC)ccc3n1CCN1CCOCC1)CC2
28.1 µM: [16]
36.2 µM: [18]
39.4 µM: [12]
18.5 µM: [10]
30.6 µM: [26]
35 µM: [20]
79.5 µM: [43]
98.4 µM: [30]
52.6 µM: [53]
37.3 µM: [8]
93.6 µM: [40]
42.5 µM: [1]
85.5 µM: [36]
35.6 µM: [7]
55.2 µM: [39]
22 µM: [47]
98 µM: [37]
39.9 µM: [15]
79.2 µM: [21]
33.6 µM: [25]
not listed: [55] | [56] | [57]
> 100 µM: all other assays above

O=[N+]([O-])c1ccc(-c2nc(/C=N/N3CCCCC3)cs2)o1
68.1 µM: [45]
76.6 µM: [21]
50.7 µM: [52]
62.6 µM: [24]
82.4 µM: [31]
73 µM: [47]
67 µM: [25]
57.1 µM: [16]
39.8 µM: [36]
59.5 µM: [43]
not listed: [2] | [7] | [10]
> 100 µM: all other assays above
